The text below walks through data of patent US20080124270A1, “Compounds Useful as Metal Chelators” (BRACCO IMAGING S.P.A., priority 2003, published 2008).

Data set [1] is described as follows: relaxivity r1 of the gadolinium complex. To be noted: for r1: relaxivity of the compound when complexed with gadolinium. The format is physicochemical. The text has this: (§1) One measure of a complex of a paramagnetic metal and a chelation compound is its signal enhancing effect when used as a contrast agent for MRI. The effectiveness of a paramagnetic complex (e.g., a complex including Gd (III)) in decreasing the relaxation time (T1) of the vicinal water protons is an intrinsic property called relaxivity, r1, which is given by the following equation: […]

Data set [2] is described as follows: relaxivity r1 of the gadolinium complex in Sucrose 80. The format is physicochemical. The following applies: relaxivity of the compound when complexed with gadolinium.
Source text: as §1

`O=C(O)CN1CCN(CC(=O)O)CCN(CP(=O)(O)O)CCN(CC(=O)O)CC1` [MPDO3A (Na), 10-Phosphonomethyl-1,4,7,10-tetraazacyclododecane-1,4,7-triacetic acid] returned a r1 in data set [1] of 4.1 mM⁻¹ s⁻¹. The “relaxivity compared to DOTA or DO3A” value in data set [1] (when it complexes gadolinium, result in words) is “surprisingly high relaxivity”. Also, the “r1 in Sucrose 80” value in data set [2] was 65 mM⁻¹ s⁻¹.

With `CC(N1CCN(CC(=O)O)CCN(CC(=O)O)CCN(CC(=O)O)CC1)P(=O)(O)O` (stereo not shown) [EPDO3A (Na), 10-(1-phosphonoethyl)-1,4,7,10-tetrazacycododecane-1,4,7-triacetic acid], the r1 in data set [1] amounted to 4.1 mM⁻¹ s⁻¹. The “r1 in Sucrose 80” value in data set [2] amounted to 64 mM⁻¹ s⁻¹.

With `O=C(O)CN1CCN(CC(=O)O)CCN(CC(=O)O)CCN(CC(=O)O)CC1` [DOTA, 1,4,7,10-tetraazacyclododecane-1,4,7,10-tetraacetic acid, reference compound], the r1 in data set [1] came to 3.5 mM⁻¹ s⁻¹. In addition, the “r1 in Sucrose 80” value in data set [2] is 35 mM⁻¹ s⁻¹.
